Calls of active or inactive are those of the source. The calls are words filed in the database; no cut-off is given here.
What was measured:
RAW264.7 [1] = test: Anti-inflammatory activity against LPS-induced mouse RAW264.7 cells assessed as decrease in IkappaB phosphorylation at 1.25 to 5 uM by Western blotting analysis; type: functional, cell-based; details: dose 1.25-5 µM
Mus musculus [2] = test: Anti-inflammatory activity against LPS-stimulated BALB/c mouse acute lung injury model assessed as increase in SOD level in lung tissue at 1.25 to 5 mg/kg, po administered for 3 days by colorimetric method; type: functional, organism-based; details: dose 1.25-5 mg/kg, time 3.0 day
Mus musculus [3] = test: Anti-inflammatory activity against LPS-stimulated BALB/c mouse acute lung injury model assessed as decrease in MDA level in lung tissue at 1.25 to 5 mg/kg, po administered for 3 days by colorimetric method; type: functional, organism-based; details: dose 1.25-5 mg/kg, time 3.0 day
[4] = target: T1, Stimulator of interferon genes protein (Mus musculus) (UniProt Q3TBT3); test: Binding affinity to STING in mouse RAW264.7 cells assessed as inhibition of protein degradation at 4 to 40 uM at 49 degreeC incubated for 12 hrs by thermal shift assay; type: cell-based; details: dose 4-40 µM
T1 sequence (whole entry): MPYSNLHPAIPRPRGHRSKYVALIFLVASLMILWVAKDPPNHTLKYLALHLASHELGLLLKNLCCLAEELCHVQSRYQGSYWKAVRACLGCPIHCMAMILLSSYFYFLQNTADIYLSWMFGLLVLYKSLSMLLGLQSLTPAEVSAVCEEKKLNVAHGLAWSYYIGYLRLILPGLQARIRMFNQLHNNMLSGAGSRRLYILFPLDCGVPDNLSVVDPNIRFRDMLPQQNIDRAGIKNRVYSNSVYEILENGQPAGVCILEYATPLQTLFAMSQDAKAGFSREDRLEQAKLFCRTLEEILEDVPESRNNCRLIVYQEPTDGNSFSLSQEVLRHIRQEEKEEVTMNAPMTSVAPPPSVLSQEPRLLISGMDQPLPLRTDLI

Mus musculus [5] = test: Anti-inflammatory activity against LPS-stimulated BALB/c mouse assessed as decrease in IL-6 level in BALF administered for 3 days by Western blotting analysis; type: functional, organism-based; details: dose 1.25-5 mg/kg, route po, time 3.0 day
RAW264.7 [6] = test: Anti-inflammatory activity against LPS-induced mouse RAW264.7 cells assessed as decrease in TNF-alpha expression at 1.25 to 5 uM preincubated for 2 hrs followed by LPS addition and measured after 12 hrs by ELISA; type: functional, cell-based; details: dose 1.25-5 µM, time 14.0 hrs
Mus musculus [7] = test: Anti-inflammatory activity against LPS-stimulated BALB/c mouse acute lung injury model assessed as decrease in IkappaB phosphorylation at 1.25 to 5 mg/kg, po administered for 3 days by Western blotting analysis; type: functional, organism-based; details: dose 1.25-5 mg/kg, time 3.0 day
Mus musculus [8] = test: Anti-inflammatory activity against LPS-stimulated BALB/c mouse acute lung injury model assessed as decrease in pulmonary edema in lung tissue at 1.25 to 5 mg/kg, po administered for 3 days by hematoxylin and eosin staining based analysis; type: functional, organism-based; details: dose 1.25-5 mg/kg, time 3.0 day
RAW264.7 [9] = test: Anti-inflammatory activity against LPS-induced mouse RAW264.7 cells assessed as decrease in IL-6 expression at 1.25 to 5 uM preincubated for 2 hrs followed by LPS addition and measured after 12 hrs by ELISA; type: functional, cell-based; details: dose 1.25-5 µM, time 14.0 hrs
RAW264.7 [10] = test: Anti-inflammatory activity against LPS-induced mouse RAW264.7 cells assessed as decrease in IRF3 phosphorylation at 1.25 to 5 uM by Western blotting analysis; type: functional, cell-based; details: dose 1.25-5 µM
[11] = target: T1, Stimulator of interferon genes protein (Mus musculus); test: Binding affinity to STING in mouse RAW264.7 cells assessed as reduction in protein degradation at 40 uM at 40 to 61 degreeC incubated for 12 hrs by thermal shift assay; type: cell-based
RAW264.7 [12] = test: Anti-inflammatory activity against LPS-induced mouse RAW264.7 cells assessed as inhibition of NO production at 10 uM preincubated for 2 hrs followed by LPS addition and measured after 24 hrs by Griess reagent-based microplate reader analysis relative to control; type: functional; parameters: scale not given: the % may be the effect or the level left; details: time 26 hrs
[13] = target: T1, Stimulator of interferon genes protein (Mus musculus); test: Binding affinity to STING in mouse RAW264.7 cells assessed as protein stabilization at 49 degreeC incubated for 12 hrs by thermal shift assay; type: cell-based; details: dose 0.4-40 µM
Mus musculus [14] = test: Anti-inflammatory activity against LPS-stimulated BALB/c mouse assessed as decrease in IFN-beta level in BALF administered for 3 days by Western blotting analysis; type: functional, organism-based; details: dose 1.25-5 mg/kg, route po, time 3.0 day
RAW264.7 [15] = test: Anti-inflammatory activity against LPS-induced mouse RAW264.7 cells assessed as decrease in p65 phosphorylation at 1.25 to 5 uM by Western blotting analysis; type: functional, cell-based; details: dose 1.25-5 µM
Mus musculus [16] = test: Anti-inflammatory activity against LPS-stimulated BALB/c mouse acute lung injury model assessed as decrease in TBK1 phosphorylation at 1.25 to 5 mg/kg, po administered for 3 days by Western blotting analysis; type: functional, organism-based; details: dose 1.25-5 mg/kg, time 3.0 day
Mus musculus [17] = test: Anti-inflammatory activity against LPS-stimulated BALB/c mouse acute lung injury model assessed as decrease in p65 phosphorylation at 1.25 to 5 mg/kg, po administered for 3 days by Western blotting analysis; type: functional, organism-based; details: dose 1.25-5 mg/kg, time 3.0 day
RAW264.7 [18] = test: Anti-inflammatory activity against LPS-induced mouse RAW264.7 cells assessed as decrease in TBK1 phosphorylation at 1.25 to 5 uM by Western blotting analysis; type: functional, cell-based; details: dose 1.25-5 µM
RAW264.7 [19] = test: Anti-inflammatory activity against LPS-induced mouse RAW264.7 cells assessed as inhibition of NO production at 20 uM preincubated for 2 hrs followed by LPS addition and measured after 24 hrs by Griess reagent-based microplate reader analysis relative to control; type: functional; parameters: scale not given: the % may be the effect or the level left; details: time 26 hrs
RAW264.7 [20] = test: Anti-inflammatory activity against LPS-induced mouse RAW264.7 cells assessed as decrease in IFN-beta expression at 1.25 to 5 uM preincubated for 2 hrs followed by LPS addition and measured after 12 hrs by ELISA; type: functional, cell-based; details: dose 1.25-5 µM, time 14.0 hrs
RAW264.7 [21] = test: Anti-inflammatory activity against LPS-induced mouse RAW264.7 cells assessed as inhibition of IRF3 nuclear translocation at 5 uM preincubated for 2 hrs followed by LPS addition and measured after 2 hrs by FITC/DAPI staining based laser confocal microscopy analysis; type: functional, cell-based; details: time 4.0 hrs
Mus musculus [22] = test: Anti-inflammatory activity against LPS-stimulated BALB/c mouse assessed as decrease in TNF-alpha level in BALF administered for 3 days by Western blotting analysis; type: functional, organism-based; details: dose 1.25-5 mg/kg, route po, time 3.0 day
RAW264.7 [23] = test: Anti-inflammatory activity against LPS-induced mouse RAW264.7 cells assessed as decrease in STING protein level at 1.25 to 5 uM by Western blotting analysis; type: functional, cell-based; details: dose 1.25-5 µM
Mus musculus [24] = test: Anti-inflammatory activity against LPS-stimulated BALB/c mouse acute lung injury model assessed as decrease in IRF3 phosphorylation at 1.25 to 5 mg/kg, po administered for 3 days by Western blotting analysis; type: functional, organism-based; details: dose 1.25-5 mg/kg, time 3.0 day
[25] = Cytotoxicity against mouse RAW264.7 cells assessed as cell viability at 40 uM incubated for 24 hrs by MTT assay relative to control; type: toxicity, cell-based; details: read-out: Activity
Mus musculus [26] = test: Anti-inflammatory activity against LPS-stimulated BALB/c mouse acute lung injury model assessed as decrease in STING expression at 1.25 to 5 mg/kg, po administered for 3 days by Western blotting analysis; type: functional, organism-based; details: dose 1.25-5 mg/kg, time 3.0 day
RAW264.7 [27] = test: Anti-inflammatory activity against LPS-induced mouse RAW264.7 cells assessed as inhibition of p65 nuclear translocation at 5 uM preincubated for 2 hrs followed by LPS addition and measured after 2 hrs by FITC/DAPI staining based laser confocal microscopy analysis; type: functional, cell-based; details: time 4.0 hrs
Mus musculus [28] = test: Anti-inflammatory activity against LPS-stimulated BALB/c mouse acute lung injury model assessed as decrease in p65 phosphorylation at 2.5 mg/kg, po administered for 3 days by Western blotting analysis; type: functional, organism-based; details: time 3.0 day
RAW264.7 [29] = test: Anti-inflammatory activity against LPS-induced mouse RAW264.7 cells assessed as decrease in IkappaB phosphorylation at 1 uM by Western blotting analysis; type: functional, cell-based
RAW264.7 [30] = test: Anti-inflammatory activity against LPS-induced mouse RAW264.7 cells assessed as inhibition of IRF3 nuclear translocation preincubated for 2 hrs followed by LPS addition and measured after 2 hrs by FITC/DAPI staining based laser confocal microscopy analysis; type: functional, cell-based; details: time 4.0 hrs
Mus musculus [31] = test: Anti-inflammatory activity against LPS-stimulated BALB/c mouse acute lung injury model assessed as decrease in IRF3 phosphorylation at 2.5 mg/kg, po administered for 3 days by Western blotting analysis; type: functional, organism-based; details: time 3.0 day
RAW264.7 [32] = test: Anti-inflammatory activity against LPS-induced mouse RAW264.7 cells assessed as decrease in p65 phosphorylation at 1 uM by Western blotting analysis; type: functional, cell-based
RAW264.7 [33] = test: Anti-inflammatory activity against LPS-induced mouse RAW264.7 cells assessed as decrease in IFN-beta expression preincubated for 2 hrs followed by LPS addition and measured after 12 hrs by ELISA; type: functional, cell-based; details: time 14.0 hrs
RAW264.7 [34] = test: Anti-inflammatory activity against LPS-induced mouse RAW264.7 cells assessed as inhibition of p65 nuclear translocation preincubated for 2 hrs followed by LPS addition and measured after 2 hrs by FITC/DAPI staining based laser confocal microscopy analysis; type: functional, cell-based; details: time 4.0 hrs
RAW264.7 [35] = test: Anti-inflammatory activity against LPS-induced mouse RAW264.7 cells assessed as decrease in IRF3 phosphorylation at 1 uM by Western blotting analysis; type: functional, cell-based
Mus musculus [36] = test: Anti-inflammatory activity against LPS-stimulated BALB/c mouse acute lung injury model assessed as decrease in TBK1 phosphorylation at 2.5 mg/kg, po administered for 3 days by Western blotting analysis; type: functional, organism-based; details: time 3.0 day
RAW264.7 [37] = test: Anti-inflammatory activity against LPS-induced mouse RAW264.7 cells assessed as decrease in TBK1 phosphorylation at 1 uM by Western blotting analysis; type: functional, cell-based
Mus musculus [38] = test: Anti-inflammatory activity against LPS-stimulated BALB/c mouse acute lung injury model assessed as decrease in STING expression at 2.5 mg/kg, po administered for 3 days by Western blotting analysis; type: functional, organism-based; details: time 3.0 day
RAW264.7 [39] = test: Anti-inflammatory activity against LPS-induced mouse RAW264.7 cells assessed as decrease in IL-6 expression preincubated for 2 hrs followed by LPS addition and measured after 12 hrs by ELISA; type: functional, cell-based; details: time 14.0 hrs
RAW264.7 [40] = test: Anti-inflammatory activity against LPS-induced mouse RAW264.7 cells assessed as decrease in TNF-alpha expression preincubated for 2 hrs followed by LPS addition and measured after 12 hrs by ELISA; type: functional, cell-based; details: time 14.0 hrs
RAW264.7 [41] = test: Anti-inflammatory activity against LPS-induced mouse RAW264.7 cells assessed as decrease in STING protein level at 1 uM by Western blotting analysis; type: functional, cell-based
Mus musculus [42] = test: Anti-inflammatory activity against LPS-stimulated BALB/c mouse acute lung injury model assessed as decrease in IkappaB phosphorylation at 2.5 mg/kg, po administered for 3 days by Western blotting analysis; type: functional, organism-based; details: time 3.0 day

CC1(C)CC[C@]2(C(=O)OCc3ccccc3)CC[C@]3(C)C(=CC[C@@H]4[C@@]5(C)CCC(=O)[C@@](C)(COC(=O)CCCNC(=O)CCCC[C@@H]6CCSS6)[C@@H]5CC[C@]43C)[C@@H]2C1
Activity (RAW264.7 [1]): Active
Activity (Mus musculus [2]): Active
Activity (Mus musculus [3]): Active
Activity [4]: Active
Activity (Mus musculus [5]): Dose-Dependent Effect
Activity (RAW264.7 [6]): Active
Activity (Mus musculus [7]): Active
Activity (Mus musculus [8]): Active
Activity (RAW264.7 [9]): Active
Activity (RAW264.7 [10]): Active
Activity [11]: Active
Activity (RAW264.7 [12]): 69.78%
Activity [13]: Dose-Dependent Effect
Activity (Mus musculus [14]): Dose-Dependent Effect
Activity (RAW264.7 [15]): Active
Activity (Mus musculus [16]): Active
Activity (Mus musculus [17]): Active
Activity (RAW264.7 [18]): Active
Activity (RAW264.7 [19]): 81.7%
Activity (RAW264.7 [20]): Active
Activity (RAW264.7 [21]): Active
Activity (Mus musculus [22]): Dose-Dependent Effect
Activity (RAW264.7 [23]): Active
Activity (Mus musculus [24]): Active
viability at 24 h, 40 µM [25]: 100%
Activity (Mus musculus [26]): Active
Activity (RAW264.7 [27]): Active

O=C(Nc1ccc(I)cc1)c1ccc([N+](=O)[O-])o1
Activity (Mus musculus [28]): Active
Activity (RAW264.7 [29]): Active
Activity (RAW264.7 [30]): Active
Activity (Mus musculus [31]): Active
Activity (RAW264.7 [32]): Active
Activity (RAW264.7 [33]): Active
Activity (RAW264.7 [34]): Active
Activity (RAW264.7 [35]): Active
Activity (Mus musculus [36]): Active
Activity (RAW264.7 [37]): Active
Activity (Mus musculus [38]): Active
Activity (RAW264.7 [39]): Active
Activity (RAW264.7 [40]): Active
Activity (RAW264.7 [41]): Active
Activity (Mus musculus [42]): Active
